# Laboratory results reported in patent publication US10266515B2, “Therapeutic inhibitory compounds” (LifeSci Pharmaceuticals, Inc., priority 2013, dated 2019).
# Biological target: human plasma kallikrein (Homo sapiens (Human), UniProt P03952)
# Test: In vitro enzyme inhibition of human plasma kallikrein (PFR-AMC cleavage)
# Assay type: biochemical
# Conditions: Pro-Phe-Arg-AMC substrate, 37° C., read-out: hPK IC50
# Method: The ability of the compounds disclosed herein to inhibit human plasma kallikrein activity was quantified according to the procedures below.
# A 10 mM solution of the test compound was made in DMSO. […] A control tube containing only DMSO is included. 16 μL of each compound test solution was combined with 384 μL of assay buffer (50 mM Tris-HCl pH 7.5, 150 mM NaCl, 0.01% Triton X-100) to yield a “4× test compound buffer stock”.
# These solutions are hereby referred to as 4×hPK and 2×PFR-AMC, respectively.
# 50 μL was removed from this mixture and placed into duplicate wells on a Microfluor 1Black U-bottom microtiter plate (Thermo Scientific). This plate was incubated for 5 minutes at 37° C. To each well, 50 μL of pre-warmed 2×PFR-AMC was added to start the enzymatic reaction. Cleavage of PFR-AMC was monitored in a Biotek Synergy H4 reader set at 37° C. Readings are taken every 43 seconds for 1 hour. […] The IC50 is calculated using the Gen5 (Biotek Instruments).
# The ability of the compounds in Table 3 to inhibit human plasma kallikrein activity was determined.
# Chain of human plasma kallikrein (P03952 391-638 limits assumed): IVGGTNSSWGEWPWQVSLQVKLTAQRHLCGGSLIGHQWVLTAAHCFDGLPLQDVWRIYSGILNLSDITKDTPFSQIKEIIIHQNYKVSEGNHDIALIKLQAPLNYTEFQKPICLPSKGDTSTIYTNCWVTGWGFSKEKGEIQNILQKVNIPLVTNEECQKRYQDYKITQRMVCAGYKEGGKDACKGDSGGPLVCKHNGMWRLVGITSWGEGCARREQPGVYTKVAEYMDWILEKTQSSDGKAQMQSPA
# Chain of human plasma kallikrein (P03952 20-390 partner limits assumed): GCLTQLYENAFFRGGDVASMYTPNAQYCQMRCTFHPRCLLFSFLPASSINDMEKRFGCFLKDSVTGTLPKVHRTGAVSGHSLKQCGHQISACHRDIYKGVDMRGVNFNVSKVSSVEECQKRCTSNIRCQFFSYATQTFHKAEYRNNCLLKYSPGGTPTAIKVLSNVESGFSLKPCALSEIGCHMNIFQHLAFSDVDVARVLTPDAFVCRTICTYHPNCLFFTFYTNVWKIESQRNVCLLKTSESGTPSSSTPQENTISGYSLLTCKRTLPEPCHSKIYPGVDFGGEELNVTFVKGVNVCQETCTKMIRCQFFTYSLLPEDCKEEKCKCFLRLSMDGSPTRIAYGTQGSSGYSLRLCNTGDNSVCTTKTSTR
substance,measurement,value
N-((3-chloro-6-fluoro-1H-indol-5-yl)methyl)-2-((2-isocyanoquinolin-6-yl)methyl)isonicotinamide [Example 130],IC50,< 100 nM
